Results from patent US4927843A (priority 1986, dated 1990).
“Also recorded” adds a separate entry of the source.

Legend:
[1] = toxicity to animals: Lethal Dose-50 given ip to ICR mice; settings: mouse, in vivo, ICR mice 20 g, one injection, average of three separate trials, Table 3
Experimental: (§1) The above mentioned thiosemicarbazone compounds were finally powdered and suspended in dimethylsulfoxid (DMSO)-(Merck) to get stock solutions of 10 mg/ml. Stock solutions were diluted to a final volume of 0.25 ml DMSO to obtain the following concentrations: 2,5 mg, 2 mg; […], 1 mg, in 0.25 ml final volume.
(§2) Each drug concentration of the 4 thiosemicarbazone derivatives was injected in a sterile manner intraperitonally (iP) to a group of 10 ICR mice, each weighing 20 g. After one injection the mice were followed for the highest non-lethal dose, and for the lethal dose. The results are an average of three separate trials.

[2] = tested on: Abelson-Moloney murine leukemia virus (Ab-MoMuLV) induced B-lymphoma; assay: antiviral effect in mice against B-lymphoma induced by Ab-MoMuLV; assay type: in vivo; settings: daily dose of 2 μg/4 g weight for 10 consecutive days, immediately after infection, versus untreated mice
Experimental: One of the three compounds, namely M-IBDET was examined as to its efficacy against the Abelson-Moloney murine leukemia virus (Ab-MoMuLV). Injection of susceptible mice with B-cell lymphocytes infected with Ab-MoMuLV usually results in induction of B-type lymphoma within 3 weeks. Treatment of mice immediately after infection with MoMuLV infected cells with M-IBDET at a daily dose of 2 μg/4 g weight for 10 consecutive days caused a delay of 3 weeks in the appearance of the lymphoma in the drug-treated mice as compared with untreated mice.

[3] = toxicity to animals: highest non-lethal dose given ip to ICR mice; settings: mouse, in vivo
Experimental: as §1, §2

Moloney leukemia virus = settings: literature refs (1-3); cited from earlier work
EIAV = assay: inhibition of EIAV production in chronically infected fibroblast cells; assay type: cell-based; settings: 2 hrs then 1:10 dilution, further 24 hours
Experimental: Fibroblast cells of […] chronically infected with EIAV were incubated for 2 hrs with concentrations ranging from 17 μM to 34 μM of the described thiosemicarbazone compounds. Subsequently the medium was diluted 1:10 to obtain a final concentration of ranging from 1.7 to 3.4 μM. The cultures were further incubated for 24 hours and virus production was assayed in drug-treated and untreated cells. The extent of inhibition of virus production in the treated cultures was 70-80%. M-IBT was tested and found to be ineffective.

[4] = tested on: viruses belonging to the Retroviridae family; assay: inhibition of virus production of Retroviridae in infected cells (summary); assay type: cell-based; settings: tested by applicant
Experimental: The thiosemicarbazone compounds described in this invention, were found by us to be specific inhibitors of viruses belonging to the Retroviridae family. Results obtained in our laboratory indicate that amounts ranging from 17 μM to 34 μM of the thiosemicarbazones suppressed specifically the production of viruses belonging to the Retroviridae family. The extent of inhibition of virus production in the infected cells was 75-85%. This inhibition was confirmed by various parameters of virus assay such as: reverse transcriptase activity, virus infectivity and contents of viral structural proteins.

[5] = tested on: viruses listed in Table I; assay type: cell-based, Mouse, Avian, Human cells; settings: 34 μM, 18 hrs (such conditions of treatment)
[6] = tested on: pox-virus family (smallpox); settings: oral, 40 mg/kg for 4 consecutive days; cited from earlier work
[7] = tested on: human immunodeficiency virus--HIV; assay: inhibition of HIV production in chronically infected H9 and HuT-78 cell lines; assay type: cell-based, human cell lines; settings: evaluated in a similar manner (2 hrs, then 1:10 dilution, 24 hrs)
Experimental: The thiosemicarbazone compounds were examined for their inhibitory effect on the human immunodeficiency virus--HIV in the following chronically infected cell lines:
H9 cell line--A human established T-cell line chronically infected with HIV;
HuT-78 cell line--A human cell line chronically infected with ARV2 (HIV).
concentrations of 5×10^6 cells per ml were incubated with 17-34 μM of the different thiosemicarbazones. Virus production was assayed in the drug-treated and untreated cells after 7 hrs of exposure. An 85% inhibition of virus production was found in the drug-treated cultures as compared to control untreated cultures. Virus production was determined by assaying various virus parameters such as reverse transcriptase activity, plaque forming units (PFU) and viral structtural protein content.
The compounds were also tested by employing a different way of treatment of the HIV infected cultures: 5×10^6 infected cells were incubated with 17-34 μM of the drug for 2 hrs. Subsequently a dilution of 1:10 of the medium was performed to final concentration of 1.7-3.4 μM of the drug. The cultures were further incubated for 24 hrs in diluted medium and virus production was assayed. The extent of inhibition of HIV production achieved by the described treatment was 75-85%. M-IBT was evaluated in a similar manner.

[8] = ICR mice 20 g, one injection, average of three separate trials, Table 2

| Compound | LD50 [1] [mg/kg] | delay in the appearance of the lymphoma [2] [weeks] | MTD [3, 8] [mg/kg] | inhibition of production of Moloney leukemia virus (Moloney leukemia virus) | effectiveness against EIAV (EIAV) | effectiveness against viruses of the Retroviridae [4] | effectiveness on virus infectivity [5] | MTD ([3]; ICR mice 20 g-weight) [mg/kg] | clinical effectiveness against pox virus / smallpox [6] | inhibition of HIV production [7] |
| --- | --- | --- | --- | --- | --- | --- | --- | --- | --- | --- |
| CCN(CC)C(=S)NN=C1C(=O)N(C)c2ccccc21 [M-IBDET, 1-methylisatin-β-4':4'-diethylthiosemicarbazone] | 125 | 3 | 50 | inhibits the production of Moloney leukemia virus |  |  |  |  |  |  |
| CN1C(=O)C(=NNC(N)=S)c2ccccc21 [M-IBT, N-methylisatine 3-thiosemicarbazone] | 125 |  |  |  | ineffective | ineffective | not effective | 50 | effective in the treatment of humans against smallpox; also recorded: effective against subjects known to have contact with smallpox; also recorded: effective results; also recorded: clinically effective | No inhibition could be detected |
| C=CCN1C(=O)C(=NNC(=S)N(C)C)c2ccccc21 [A-IBDMT, 1-allylisatin-β-4':4'-dimethylthiosemicarbazone] | 175 |  | 100 |  |  |  |  |  |  |  |
| C=CCN1C(=O)C(=NNC(=S)N(CC)CC)c2ccccc21 [A-IBDET, 1-allylisatin-β-4':4'-diethylthiosemicarbazone] | 175 |  | 100 |  |  |  |  |  |  |  |
